Earlier results as cited in US20060099230A1, “Novel formulations of eprosartan with enhanced bioavailability” (priority 2004, published 2006).
Structures can show the parent of a compound that is named as a salt.

Conditions: for bioavailability (mean absolute / oral): conventional formulation, dose not stated

bioavailability (mean absolute / oral) [%]	effect of food on absorption (administered with food)	accumulation (chronic use)	absolute bioavailability (following a 300 mg oral dose)	dose proportionality of plasma concentrations (over the 100 mg to 800 mg dose range)	Compound
13	–	–	–	–	CCCCc1ncc(/C=C(\Cc2cccs2)C(=O)O)n1Cc1ccc(C(=O)O)cc1 [eprosartan mesylate]
13	delays absorption	does not significantly accumulate	approximately 13%	slightly less than dose-proportional	CCCCc1ncc(/C=C(\Cc2cccs2)C(=O)O)n1Cc1ccc(C(=O)O)cc1 [eprosartan, (E)-α-[2-n-butyl-1-[(4-carboxyphenyl)methyl]-1H-imidazol-5-yl]methylene-2-thiophenepropionic acid]
